This passage reports IC50 results from patent US20110306597A1, “Nicotinamide Derivatives” (priority 2008, published 2011).

A word on the IC50: it is the midpoint of a concentration-inhibition curve.

This assay concerns the target human recombinant H-PGDS (Homo sapiens, UniProt O60760). Description: Fluorescence Intensity h-PGDS TBA Enzyme Assay. The assay is classed as biochemical. The settings on record: 1:175,000 human recombinant H-PGDS, highest inhibitor concentration typically 1 μM. An outline of the steps: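 Readout is PGH2 depletion: after a 42 s reaction with 5.0 μM PGH2 and 2.5 mM glutathione (pH 8.0 Tris, 10 min inhibitor preincubation), Fe(II) converts leftover PGH2 to MDA, which forms a fluorescent TBA complex. IC50s come from 11-point, 3-fold duplicate curves, 4-parameter fit.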

Sequence of human recombinant H-PGDS (O60760 whole entry): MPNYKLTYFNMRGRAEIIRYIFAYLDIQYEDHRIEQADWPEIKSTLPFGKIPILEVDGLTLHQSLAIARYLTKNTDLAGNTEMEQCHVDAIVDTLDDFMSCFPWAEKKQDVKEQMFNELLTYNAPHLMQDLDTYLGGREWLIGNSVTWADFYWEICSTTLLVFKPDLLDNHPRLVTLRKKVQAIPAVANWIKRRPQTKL

For the molecule “6-(3-Fluorophenyl)-N-(3- hydroxypropyl)nicotinamide [Example 435]”, the IC50 was found to be 49.5 nM.

For the molecule `Cc1ccc(CN2CCC(NC(=O)c3ccc(-c4cccc(C)c4)nc3)C2=O)cc1` (stereo not drawn) [Example 227, N-[1-(4-Methylbenzyl)-2-oxopyrrolidin-3-yl]-6-(3-methylphenyl)nicotinamide], the IC50 worked out at 62.2 nM.

For the molecule `CCN(CC)CCCCNC(=O)c1ccc(-c2cccc(F)c2)nc1` [Example 102, N-[4-(Diethylamino)butyl]-6-(3-fluorophenyl)nicotinamide], the IC50 was determined as 86.3 nM.

As to `O=C(NCc1nnc(-c2cccnc2)[nH]1)c1ccc(-c2ccccc2)nc1` [Example 514, 6-Phenyl-N-[(5-pyridin-3-yl-4H-1,2,4-triazol-3-yl)methyl]nicotinamide], the IC50 came out at 5.2 nM.

As for `O=C(NCCCNc1ccccn1)c1ccc(-c2ccc(F)cc2)nc1` [Example 261, 6-(4-Fluorophenyl)-N-[3-(pyridin-2-ylamino)propyl]nicotinamide], the IC50 amounted to 91.8 nM.

In the case of `O=C(NCc1ccc(C(F)(F)F)cc1)c1ccc(-c2ccccc2)nc1` [Example 385, 6-Phenyl-N-[4-(trifluoromethyl)benzyl] nicotinamide], the IC50 came to 42.7 nM.

As for `Cc1cccc(-c2ccc(C(=O)NCCN3CCCCC3)cn2)c1` [Example 225, 6-(3-Methylphenyl)-N-(2-piperidin-1-ylethyl)nicotinamide], the IC50 stood at 265 nM.

As to `O=C(NCc1cc(F)cc2c1OCOC2)c1ccc(-c2cccc(F)c2)nc1` [Example 184, N-[(6-Fluoro-4H-1,3-benzodioxin-8-yl)methyl]-6-(3-fluorophenyl)nicotinamide], the IC50 came out at 49.5 nM.

For the molecule `Cc1cc(CNC(=O)c2ccc(-c3cccc(F)c3)nc2)c(C(F)(F)F)o1` [Example 203, 6-(3-Fluorophenyl)-N-{[5-methyl-2-(trifluoromethyl)-3-furyl]methyl}nicotinamide], the IC50 is 150 nM.

In the case of `O=C(NCc1ccc(Cl)c(Cl)c1)c1ccc(-c2ccc(F)cc2)nc1` [Example 475, N-(3,4-Dichlorobenzyl)-6-(4-fluorophenyl)nicotinamide], the IC50 is not below 1000 nM.

For the molecule `N#CC(NC(=O)c1ccc(-c2cccc(F)c2)nc1)C(=O)NCCN1CCOCC1` (stereo not drawn) [Example 212, N-{1-Cyano-2-[(2-morpholin-4-ylethyl)amino]-2-oxoethyl}-6-(3-fluorophenyl)nicotinamide], the IC50 stood at 297 nM.

For the molecule `CC(NC(=O)c1ccc(-c2ccc(F)cc2)nc1)c1ccncn1` (stereo not drawn) [Example 502, 6-(4-Fluorophenyl)-N-(1-pyrimidin-4-ylethyl) nicotinamide], the concentration for half-maximal inhibition (IC50) is not below 1000 nM.

With `CC(O)CNC(=O)c1ccc(-c2ccccc2)nc1` (stereo not drawn) [Example 390, N-(2-Hydroxypropyl)-6-phenylnicotinamide], the IC50 was determined as 13 nM.

For the molecule `O=C(NCCCN1CCCC1=O)c1ccc(-c2ccccc2)nc1` [Example 350, N-[3-(2-Oxopyrrolidin-1-yl)propyl]-6-phenylnicotinamide], the IC50 was found to be 6.8 nM.

With `Cc1nnc(C(C)NC(=O)c2ccc(-c3cccc(F)c3)nc2)[nH]1` (stereo not drawn) [Example 138, 6-(3-Fluorophenyl)-N-[1-(5-methyl-4H-1,2,4-triazol-3-yl)ethyl]nicotinamide], the IC50 worked out at 287 nM.

As to `COC(=O)CCNC(=O)c1ccc(-c2cccc(OC)c2)nc1` [Example 335, Methyl N-{[6-(3-methoxyphenyl)pyridin-3-yl]carbonyl}-beta-alaninate], the IC50 was found to be 352 nM.

Regarding `CCOC(=O)CCCCCNC(=O)c1ccc(-c2cccc(F)c2)nc1` [Example 137, Ethyl 6-({[6-(3-fluorophenyl)pyridin-3-yl]carbonyl}amino)hexanoate], the IC50 stood at 11.2 nM.

As to `CCOC(=O)C(CNC(=O)c1ccc(-c2cccc(F)c2)nc1)c1c(F)cccc1F` (stereo not drawn) [Example 163, Ethyl 2-(2,6-difluorophenyl)-3-({[6-(3-fluorophenyl)pyridin-3-yl]carbonyl}amino)propanoate], the IC50 worked out at 146 nM.

With `O=C(NCCC1CCC(=O)N1CCN1CCOCC1)c1ccc(-c2cccc(F)c2)nc1` (stereo not drawn) [Example 42, 6-(3-Fluorophenyl)-N-{2-[1-(2-morpholin-4-ylethyl)-5-oxopyrrolidin-2-yl]ethyl}nicotinamide], the half-inhibitory concentration (IC50) was 12.6 nM.

On to `CC[C@H](CC#N)NC(=O)c1ccc(-c2cccc(F)c2)nc1` [Example 65, N-[(1R)-1-(Cyanomethyl)propyl]-6-(3-fluorophenyl)nicotinamide], for which the IC50 stood at 60.3 nM.

With `COc1cccc(-c2ccc(C(=O)NCc3ccc(Cl)cc3)cn2)c1` [Example 281, N-(4-Chlorobenzyl)-6-(3-methoxyphenyl)nicotinamide], the IC50 was determined as 561 nM.

Consider `O=C(NCc1ccc(Br)cc1)c1ccc(-c2ccc(F)cc2)nc1` [Example 505, N-(4-Bromobenzyl)-6-(4-fluorophenyl)nicotinamide], for which the half-inhibitory concentration (IC50) is not below 1000 nM.

`O=C(NCc1cn2ncsc2n1)c1ccc(-c2cccc(F)c2)nc1` [Example 182, 6-(3-Fluorophenyl)-N-(imidazo[2,1-b][1,3,4]thiadiazol-6-ylmethyl)nicotinamide]: the IC50 was determined as 79.2 nM.

As to `Cc1noc(CCNC(=O)c2ccc(-c3cccc(F)c3)nc2)n1` [Example 181, 6-(3-Fluorophenyl)-N-[2-(3-methyl-1,2,4-oxadiazol-5-yl)ethyl]nicotinamide], the IC50 was found to be 44.6 nM.

For “6-(3-Fluorophenyl)-N-[2- hydroxy-2-(1-methyl-1H- imidazol-2- yl)ethyl]nicotinamide [Example 4]”, the IC50 was found to be 59.9 nM.

As for `CCOC(=O)CC(NC(=O)c1ccc(-c2cccc(OC)c2)nc1)c1ccc(OC)cc1` (stereo not drawn) [Example 294, Ethyl 3-(4-methoxyphenyl)-3-({[6-(3-methoxyphenyl)pryidin-3-yl]carbonyl}amino) propanoate], the IC50 came to 191 nM.

For the molecule `O=C(NCc1ccc(F)cc1)c1ccc(-c2ccc(F)cc2)nc1` [Example 482, N-(4-Fluorobenzyl)-6-(4-fluorophenyl)nicotinamide], the IC50 is 527 nM.

Take `COc1cccc(-c2ccc(C(=O)NCc3ccc(S(N)(=O)=O)cc3)cn2)c1` [Example 481, N-[4-(Aminosulfonyl)benzyl]-6-(3-methoxyphenyl) nicotinamide]: the IC50 was determined as 365 nM.

On to `CCOC(=O)C1(NC(=O)c2ccc(-c3cccc(C)c3)nc2)CCOCC1` [Example 220, Ethyl 4-({[6-(3-methylphenyl)pyridin-3-yl]carbonyl}amino)tetrahydro-2H-pyran-4-carboxylate], for which the half-inhibitory concentration (IC50) came to 93.4 nM.

As for `O=C(NCCNc1ccccc1)c1ccc(-c2cccc(F)c2)nc1` [Example 429, N-(2-Anilinoethyl)-6-(3-fluorophenyl)nicotinamide], the IC50 stood at 21.8 nM.

`Cc1cccc(-c2ccc(C(=O)NCc3cccc(S(C)(=O)=O)c3)cn2)c1` [Example 245, 6-(3-Methylphenyl)-N-[3-(methylsulfonyl)benzyl] nicotinamide]: the IC50 amounted to 11.5 nM.

For the molecule `O=C(NCCC1CCCCO1)c1ccc(-c2ccc(F)cc2)nc1` (stereo not drawn) [Example 270, 6-(4-Fluorophenyl)-N-[2-(tetrahydro-2H-pyran-2-yl)ethyl]nicotinamide], the IC50 amounted to 216 nM.

As for `O=C(NCc1ccc(C(F)(F)F)cc1)c1ccc(-c2ccc(F)cc2)nc1` [Example 267, 6-(4-Fluorophenyl)-N-[4-(trifluoromethyl)benzyl] nicotinamide], the IC50 is not below 1000 nM.

Consider `Cc1cccc(-c2ccc(C(=O)NC(=O)[C@@H](N)C(C)C)cn2)c1` [Example 243, 6-(3-Methylphenyl)-N-L-valylnicotinamide], for which the IC50 was 124 nM.

Regarding `CCOC(=O)CC(C)NC(=O)c1ccc(-c2cccc(F)c2)nc1` (stereo not drawn) [Example 157, Ethyl 3-({[6-(3-fluorophenyl)pyridin-3-yl]carbonyl}amino)butanoate], the IC50 is 8.79 nM.

As for `O=C(Nc1cccnc1)c1ccc(-c2cccc(F)c2)nc1` [Example 419, 6-(3-Fluorophenyl)-N-pyridin-3-ylnicotinamide], the IC50 was found to be 3.94 nM.

In the case of `O=C(NCc1cccc(F)c1)c1ccc(-c2ccc(F)cc2)nc1` [Example 465, N-(3-Fluorobenzyl)-6-(4-fluorophenyl)nicotinamide], the half-maximal inhibitory concentration (IC50) came to 345 nM.

`Cc1cc(-c2cnc(C(C)(C)C)nc2CNC(=O)c2ccc(-c3cccc(F)c3)nc2)on1` [Example 122, N-{[2-tert-Butyl-5-(3-methylisoxazol-5-yl)pyrimidin-4-yl]methyl}-6-(3-fluorophenyl)nicotinamide]: the IC50 was more than 1000 nM.

For the molecule `Cc1noc(CC(NC(=O)c2ccc(-c3cccc(F)c3)nc2)c2ccccc2)n1` (stereo not drawn) [Example 87, 6-(3-Fluorophenyl)-N-[2-(3-methyl-1,2,4-oxadiazol-5-yl)-1-phenylethyl]nicotinamide], the IC50 worked out at 35.8 nM.

For the molecule `COc1cccc(-c2ccc(C(=O)NCCC3CCCCO3)cn2)c1` (stereo not drawn) [Example 304, 6-(3-Methoxyphenyl)-N-[2-(tetrahydro-2H-pyran-2-yl)ethyl]nicotinamide], the concentration for half-maximal inhibition (IC50) is 177 nM.

Turning to “6-(3-Fluorophenyl)-N-{[4-(4- methoxybenzoyl)-5- oxomorpholin-2- yl]methyl}nicotinamide [Example 72]”, the IC50 came to 51 nM.

With `COc1ccc(CNC(=O)c2ccc(-c3cccc(OC)c3)nc2)cc1` [Example 303, N-(4-Methoxybenzyl)-6-(3-methoxyphenyl)nicotinamide], the IC50 stood at 331 nM.

With `CN(C)CCCCCNC(=O)c1ccc(-c2cccc(F)c2)nc1` [Example 77, N-[5-(Dimethylamino)pentyl]-6-(3-fluorophenyl)nicotinamide], the IC50 worked out at 90.3 nM.

On to `COc1ccc(CNC(=O)c2ccc(-c3cc(F)cc(F)c3)nc2)cc1OC` [Example 567, 6-(3,5-Difluorophenyl)-N-(3,4-dimethoxybenzyl)nicotinamide], for which the IC50 is 10.6 nM.

Turning to `COc1cccc(-c2ccc(C(=O)NCCN3CCN(Cc4ccccc4)CC3)cn2)c1` [Example 295, N-[2-(4-Benzylpiperazin-1-yl)ethyl]-6-(3-methoxyphenyl)nicotinamide], the IC50 is 377 nM.
